34 compounds from ChEMBL document CHEMBL4811263, “Tulipiferamide A, an Alkamide from Liriodendron tulipifera, Exhibits an Anti-Inflammatory Effect via Targeting IKKβ Phosphorylation” (J Nat Prod, 2021) can be followed below.

SMILES strings stand for the structures.

A word on the IC50: it is the concentration needed to halve the response being measured.

Tested on in the first test: not listed separately
As to the kind of experiment: Inhibition of LPS-indued NF-kappaB activation in mouse RAW264.7 cells preincubated for 30 mins followed by LPS stimulation and measured after 10 hrs by luciferase assay. Type of test: cell-based.
`COc1cc(O)c2c(c1)O[C@H](c1ccc(O)cc1)CC2=O` [SAKURANETIN]: it took 15.5 µM to reach half-maximal inhibition (IC50).

Compound `C=C[C@]1(C)C[C@H](O)[C@H]2C(=C)C(=O)O[C@@H]2[C@H]1C(=C)C` gave an IC50 of 14.1 µM. In the case of `COc1c2c3c(c(OC)c1OC)-c1ccccc1C[C@H]3N(C(C)=O)CC2`, half-maximal inhibition (IC50) required 24.5 µM. Still for that read-out and setting: in the case of `C=C1C(=O)O[C@@H]2/C=C(\C)CC/C=C(\C)C[C@@H](O)[C@@H]12` [EUPATOLIDE] it was 12.2 µM; in that of `NC(=O)Nc1sc(-c2ccc(F)cc2)cc1C(N)=O`, 0.022 µM. In turn, `COc1c(OC)c2c3c(nccc3c1OC)C(=O)c1cc3c(cc1-2)OCO3` [OXOPHOEBINE] returned an IC50 of 28.5 µM. `COc1cc2ccnc3c2c(c1OC)-c1ccccc1C3=O` [LYSICAMINE] displayed an IC50 of 17.8 µM.

For the next test, the system named is RAW264.7. As to the kind of experiment: Antiinflammatory activity in mouse RAW264.7 assessed as inhibition of LPS-induced NO production preincubated for 30 mins followed by LPS stimulation measured after 24 hrs by Griess reagent based assay. Type of test: functional, cell-based. (The Griess reaction detects nitrite, a stable product of nitric oxide.)
`COc1cc(C=O)ccc1O` [VANILLIN]: the IC50 is more than 50 µM. The same measure, in the same setting: to `COc1cc(O)c2c(c1)O[C@H](c1ccc(O)cc1)CC2=O` [SAKURANETIN] belongs 21.6 µM; to `C=C[C@]1(C)C[C@H](O)[C@H]2C(=C)C(=O)O[C@@H]2[C@H]1C(=C)C`, 12 µM; to `COc1cc([C@H]2Oc3c(OC)cc(CCCO)cc3[C@@H]2CO)ccc1O` [DIHYDRODEHYDRODICONIFERY ALCOHOL], more than 50 µM. As for `CCCCC/C=C/C=C\C(=O)NCCc1ccccc1`, the IC50 is more than 50 µM. The same measure, in the same setting: to `COc1cc(/C=C/C(=O)NCCc2ccc(O)cc2)ccc1O` [N-TRANS-FERULOYL TYRAMINE] belongs more than 50 µM; to `COc1cc2oc(=O)ccc2c(OC)c1OC` [5,6,7-TRIMETHOXYCOUMARIN], more than 50 µM. Consider `COc1c2c3c(c(OC)c1OC)-c1cc4c(cc1C[C@@H]3N(C(C)=O)CC2)OCO4`, for which the IC50 is more than 50 µM. `COc1cc(C[C@H]2CO[C@H](c3ccc(O)c(OC)c3)[C@H]2CO)ccc1O` [LARICIRESINOL]: the IC50 was more than 50 µM.

Take `C=CCc1cc(OC)c(O)c(OC)c1` [METHOXYEUGENOL]: the IC50 was more than 50 µM.

`COc1c2c3c(c(OC)c1OC)-c1ccccc1C[C@H]3N(C(C)=O)CC2`: the IC50 was 14 µM.

As for `C=C1C(=O)O[C@@H]2/C=C(\C)CC/C=C(\C)C[C@@H](O)[C@@H]12` [EUPATOLIDE], the IC50 came out at 7.3 µM.

In the case of `CNC(=N)NCCC[C@H](N)C(=O)O` [TILARGININE], the IC50 was determined as 35.5 µM.

On to `C=CCc1cc(OC)c(O[C@H](C)Cc2cc(OC)c3c(c2)OCO3)c(OC)c1`, for which the concentration for half-maximal inhibition (IC50) was more than 50 µM. Still for that read-out and setting: to `COc1c(OC)c2c3c(nccc3c1OC)C(=O)c1cc3c(cc1-2)OCO3` [OXOPHOEBINE] belongs 34.2 µM; to `O=C1c2ccccc2-c2c3c(cc4ccnc1c24)OCO3` [LIRIODENINE], 10.5 µM; to `CC(=O)N(C)CCc1ccccc1`, more than 50 µM.

Turning to `COc1cc(C(=O)C2CO[C@H](c3cc(OC)c(O)c(OC)c3)[C@H]2CO)cc(OC)c1O` (stereo not given in full), the 50% inhibitory concentration (IC50) is more than 50 µM.

Take `COc1cc2c(cc1OC)-c1c(OC)c(OC)cc3ccnc(c13)C2=O` [OXOGLAUCINE]: the IC50 is more than 50 µM.

With `C/C=C/c1cc(OC)c(OC(C)Cc2cc(OC)c(OC)c(OC)c2)c(OC)c1` (racemic), the IC50 is more than 50 µM. Same read-out and setting: in the case of `COc1cc(/C=C/C(=O)NCCc2ccc(O)c(OC)c2)ccc1O` it was more than 50 µM. For `CC(=O)N1CCc2cc3c(c4c2[C@H]1Cc1ccccc1-4)OCO3`, the half-maximal inhibitory concentration (IC50) was more than 50 µM. In the case of `O=C(NCCc1ccccc1)c1ccccc1`, the 50% inhibitory concentration (IC50) was more than 50 µM. For `COc1cc([C@H]2OC[C@H]3[C@@H]2CO[C@@H]3c2cc(OC)c(O)c(OC)c2)cc(OC)c1O` [SYRINGARESINOL], the IC50 was more than 50 µM. On to `O=Cc1ccc(O)cc1` [4-HYDROXYBENZALDEHYDE], for which the IC50 is more than 50 µM. On the same count and under the same terms, in the case of `CCCCC/C=C\CCC(=O)NCCc1ccccc1` it was more than 50 µM; in that of `C=C1C(=O)O[C@@H]2/C=C(\C)CC/C=C(\C)CC[C@@H]12` [COSTUNOLIDE], more than 50 µM; in that of `COc1c(OC)c2c3c(nccc3c1OC)C(=O)c1ccccc1-2` [HOMOMOSCHATOLINE], more than 50 µM. Still for that read-out and setting: to `COc1cc2ccnc3c2c(c1OC)-c1ccccc1C3=O` [LYSICAMINE] belongs 6.4 µM; to `COc1cc2c3c(c1OC)-c1ccccc1C[C@H]3N(C(C)=O)CC2`, more than 50 µM. Consider `C=C1C(=O)O[C@@H]2/C=C(\C)CC/C=C(\C)C[C@@H](OC(C)=O)[C@@H]12`, for which the IC50 is 19.8 µM.

Take `C=CCc1cc(OC)c(OC(C)Cc2cc(OC)c(OC)c(OC)c2)c(OC)c1` (racemic): the concentration for half-maximal inhibition (IC50) is more than 50 µM. With `COc1c2c(c3c4c(nccc14)C(=O)c1ccccc1-3)OCO2`, the IC50 is more than 50 µM.
